Data on 91 compounds can be found in a melting point compilation (Tetko et al.; mined from patent text by program, amines drawn as free bases though some values may be those of a salt).

The melting point is the temperature, or range, at which the solid turns liquid.

The compound `CC(=O)N(CC(=O)O)c1csc(NC(=O)OCC(Cl)(Cl)Cl)n1` came in with a melting point of 158 °C.

Regarding `O=C(CI)OCc1ccc([N+](=O)[O-])cc1`, the melting point was 62.5 to 63.5 °C.

Consider `C[C@@H]1c2sccc2CN(C)[C@H]1CCNC(=O)c1ccc(NS(C)(=O)=O)cc1` (relative stereo), for which the melting point was in the range of 67 to 74 °C.

For `Cc1cc(NN)c2ccccc2n1`, the melting point is 195 to 197 °C.

`CC(C)(C)c1ccc(O)c(CNS(=O)(=O)O)c1` returned a melting point of 260 to 262 °C.

`C=CCOc1cc(C(O)(C(F)(F)F)C(F)(F)F)cc2c(C)cc(=O)[nH]c12` yielded a melting point of 214 to 216 °C.

The compound `CS(=O)(=O)Nc1ccc(-c2ccc(S(=O)(=O)n3ccc(C=CC(=O)NO)c3)cc2)cc1` had a melting point of 160 to 167 °C.

In turn, `CN(Cc1sc2c(=O)c(C(=O)NCc3ccc(Cl)cc3)cn(C)c2c1COCC[Si](C)(C)C)CC(O)c1cc2ccccc2o1` (stereo unspecified) had a melting point of 157 to 159 °C.

In turn, `CC1(c2c[nH]cn2)CCCCC1` returned a melting point of 73 to 75 °C.

Consider `CN(C)C1CCCN(C(=O)c2ccc([N+](=O)[O-])cc2)c2ccccc21` (stereo unspecified), for which the melting point is 139 to 142 °C.

`N#Cc1ccc(CNc2cc(C(N)=O)c([N+](=O)[O-])cc2[N+](=O)[O-])cc1`: the melting point lay in the range of 201 to 203 °C.

`[N-]=[N+]=NCc1ccc(C(=O)O)c(Cl)c1` returned a melting point of 87 to 88 °C.

Take `O=Cc1cnc2c(OCc3ccccc3)cccn12`: the melting point amounted to 167 °C.

As for `Cc1cccc(NC(=O)NCC(=O)N(c2ccccc2)C(C(=O)N2CCCC2)c2ccccc2)c1` (racemic), the melting point was 138 °C.

`O=C1c2ccc(SCc3ccccc3)cc2CC1Br` (stereo unspecified) registered a melting point of 88 °C.

With `CC(C)(Cn1cncn1)C(O)(CCc1ccc2ccccc2c1)Cn1cncn1` (stereo unspecified), the melting point lay in the range of 77 to 80 °C.

For `COC(=O)c1ccc(OC)c(I)n1`, the melting point lay within 175 to 178 °C.

As to `CN(C)C(=O)ON=C1SC(=C(C#N)C#N)SC1(C)C`, the melting point lay within 175 to 177 °C.

The compound `CCS(=O)(=O)c1ccc(F)c(C#Cc2cc(Cl)ccc2OCC(=O)O)c1` registered a melting point of 165 to 169 °C.

`CCCCCCCCCC=[N+]([O-])CCCCCCCCCC` came in with a melting point of 63 to 65 °C.

For the compound `CN1CCN(Cc2ccccc2C(F)(F)F)C(C2=NCCN2)C1` (stereo unspecified), the melting point lay within 163 to 165 °C.

Turning to `CCCCCCCCCCCCCCCCCNC(=O)OCCOCCOC(=O)N(Cc1ccccn1)C(=O)OCC`, the melting point was 57 to 59 °C.

Compound `CN(C)c1ccc2ncnc(Cl)c2c1` returned a melting point of 126 to 128 °C.

`O=C(Nc1nc(CN2CCC(c3c[nH]c4ccccc34)CC2)cs1)C(F)(F)F` came in with a melting point of 244 to 247 °C.

Take `O=C(O)c1nn(-c2c(Cl)cc(C(F)(F)F)cc2Cl)cc1OC(F)F`: the melting point fell in the range of 180 to 183 °C.

Turning to `Cc1c(CNCC(C)(C)C)n(C)c2ccc(NC(=O)c3ccc(OC[C@@H]4CCCO4)cc3)cc12`, the melting point fell in the range of 165 to 166 °C.

`O=C(Nc1ccc(C(=O)O)cc1)OCc1ccccc1` showed a melting point of more than 235 °C.

In turn, `O=C1CC2CC(Oc3nc4ccccc4[nH]3)CC2C1` (stereo unspecified) displayed a melting point of 208 to 209 °C.

On to `C=C1C(=N)NC(=O)N1Cc1ccccc1`, for which the melting point stood at 225 °C.

As to `CC(C)(C)[Si](C)(C)N1C(=O)CC1SC(c1ccccc1)(c1ccccc1)c1ccccc1` (stereo unspecified), the melting point lay in the range of 113 to 114 °C.

In the case of `C[C@@H]1CCC[C@H](C)N1Cc1ccc2cc(NC(=O)c3ccc(-c4ccc(Cl)cc4)nc3)ccc2c1`, the melting point was 229 to 230 °C.

Consider `COC(=O)c1ccc(CC(C)NCC(O)c2ccccc2)cc1` (stereo unspecified), for which the melting point was 82 to 84 °C.

`Cc1cc2c(cc1[N+](=O)[O-])C(=O)CC(C)O2` (stereo unspecified) showed a melting point of 110 to 113 °C.

As to `Cc1c(C#N)cc2ccc3c(c2c1Br)C(C)(C)C(=O)O3`, the melting point fell in the range of 235 to 237 °C.

Regarding `CC1(C2CCC3C4CCC5CC=CCC5(C)C4C(O)CC32C)OCCO1` (stereo unspecified), the melting point lay within 141 to 145 °C.

Compound `COC(=O)CCCc1cc2nc(Cl)ccc2n1S(=O)(=O)c1ccc2c(c1)CCO2` registered a melting point of 201 °C.

As to `N#CC1=C(C2CCCC2)Nc2n[nH]cc2C1c1cccc2nonc12` (stereo unspecified), the melting point came to 193 °C.

Take `Cc1oc(-c2ccccc2)nc1CCOc1ccc(C[C@@H](C(=O)O)n2cccc2)cc1`: the melting point is 155 to 156 °C.

As for `COc1nc(NC(=O)NS(=O)(=O)c2cccc3c2OS(=O)(=O)C(C)=C3)c(Cl)c(OC)n1`, the melting point is 236 to 237 °C.

Compound `Cc1nc2c3c(c(CO)cn2c1C)CCC(c1ccccc1)C3` (stereo unspecified) displayed a melting point of 290 to 292 °C.

Consider `N#Cc1nn(-c2c(Cl)cc(C(F)(F)F)cc2Cl)c(N)c1S(=O)(=O)CC(F)(F)F`, for which the melting point came to 157 °C.

`COC(=O)c1cc2c(OC(C)C)cccc2o1` had a melting point of 43 to 45 °C.

In the case of `CSC[C@H](C)NC(=O)c1c(Cl)cccc1C(=O)Nc1ccc(Cn2c(C)nnc2C(F)(F)F)cc1C`, the melting point was in the range of 168 to 170 °C.

In turn, `CC(=O)OCc1cccc(C(C)C)c1NC(=O)CC1c2ccccc2Oc2ccccc21` had a melting point of 155 to 156 °C.

`CC(C)OC(=O)c1cc(-n2c(=O)c3c(n(C)c2=O)CCCC3)ccc1Cl` displayed a melting point of 136 to 138 °C.

As for `Cc1cc(=O)n(-c2cc(OC(C)C)c(Cl)cc2F)c(=O)n1C`, the melting point lay in the range of 149 to 151 °C.

Regarding `C[C@H](Cn1ccnc1)NC(=O)c1c[nH]c2ncc(-c3nn(C)c4cc(Cl)ccc34)nc12`, the melting point was 276 to 279 °C.

For `COc1ccc(N2CN(CC(=O)O)C(=O)C23CCN(C(=O)OC(C)(C)C)CC3)cc1`, the melting point fell in the range of 173 to 174 °C.

`COC(=O)c1cc2c(C)ccc(C)c2n1C(C)=O` yielded a melting point of 92 to 93 °C.

The compound `Cc1c2c(nn1-c1ccc(Cl)cc1F)CCCC2` came in with a melting point of 84.5 to 87.5 °C.

For `CC(C)(C)OC(=O)NCC1CCN(Cc2ccccc2)C1` (stereo unspecified), the melting point was in the range of 51 to 54 °C.

Consider `O=C1N(CC2CCCCC2)c2ccccc2C12COc1cc3c(cc12)OCO3` (stereo unspecified), for which the melting point is 153 to 154 °C.

`COc1ccc(-c2c3ccccc3cc3sc4ccccc4c23)cc1I` had a melting point of 274 to 275 °C.

With `Cc1csc2c1-n1cccc1/C2=N/OCCBr`, the melting point came out at 92 °C.

`O=C(O)c1ccccc1NC(=O)c1ncoc1-c1ccc(C(F)(F)F)cc1` displayed a melting point of 231 to 232 °C.

As to `O=C(O)c1ccc(Cn2nnc(-c3cccc(I)c3)n2)cc1`, the melting point is 241 to 242 °C.

`CC(=O)OCC1OC(n2ncc(C#N)n2)C(OC(C)=O)C1OC(C)=O` (stereo unspecified) showed a melting point of 77 to 79 °C.

Regarding `Clc1ccc(-c2nc(CCCCCc3nnn[nH]3)oc2-c2ccc(Cl)cc2)cc1`, the melting point was found to be 100 °C.

In the case of `CNc1nc2c(s1)C(=O)CCC2`, the melting point lay in the range of 180 to 182 °C.

In the case of `N#CCc1cccc(C(=O)c2ccccc2)c1N`, the melting point was in the range of 138 to 139 °C.

For `Cc1c(NC(=O)CC(CSC(=O)COc2ccccc2)c2ccccc2)cccc1C(=O)O` (stereo unspecified), the melting point is 130 to 132 °C.

`COc1ccc(C2=NN(c3ccc(C4=NNC(=O)CC4C)cc3)C(=O)C3CC=CCC23)cc1OC` (stereo unspecified) came in with a melting point of 192 to 194 °C.

The compound `COc1ccc(-c2nc(COc3cccc([N+](=O)[O-])c3)c(C)o2)cc1` came in with a melting point of 109 to 111 °C.

For `COc1ccc(N2C(=O)/C(=C/C(C)=NO)C2c2ccccc2)cc1` (stereo unspecified), the melting point is 204 to 206 °C.

For the compound `OCC1Cc2cc(Cl)cc(C3CCCCC3)c2O1` (stereo unspecified), the melting point was 67 to 69 °C.

`CCc1cccc(CC(=O)O)c1OCCn1cc(C(=O)NCc2ccc(C(F)(F)F)cc2)c(OC(C)C)n1` came in with a melting point of 110 to 111 °C.

For the compound `CC(=O)N(C(C)=O)C1=C(N2CCN(c3ccc(F)cc3)CC2)C(=O)c2ccccc2C1=O`, the melting point fell in the range of 149 to 150 °C.

Regarding `O=C1NCN(c2ccc(F)cc2)C12CCN(CCCn1c(=O)[nH]c3ccccc31)CC2`, the melting point is 215 °C.

For `CCOC(=O)CNC(=S)NC(Cc1ccc(OC)cc1)=Nc1ccccc1`, the melting point is 120 to 121 °C.

For the compound `Cn1ncc(C(=O)N[C@H]2CCOC2)c1C(=O)Nc1ccn2nc(-c3ccccc3)nc2c1`, the melting point was more than 250 °C.

Compound `O=CC=NNc1c(Cl)cc(C(F)(F)F)cc1Cl` yielded a melting point of 131 to 133 °C.

`O=C1NC(=S)SC1=Cc1cccc(Cl)c1Cl` showed a melting point of 203 to 204 °C.

`c1cc(-c2ccc3nncn3n2)cs1`: the melting point was 189 to 192 °C.

`C=CCOc1ccc(C(=O)O)cc1` had a melting point of 163 to 164 °C.

For the compound `CCC(=O)C1=CC=C(OC)C(Cl)(Cl)C1`, the melting point lay within 51 to 54 °C.

As to `Cc1c(NC(=O)CC(C)(C)C)c(C)c2c(c1-c1cccc(N(C)C)c1)OCC2c1ccc(C(C)C)cc1` (stereo unspecified), the melting point is 197 to 199 °C.

`CCNc1nc(NCC)nc(-c2ccc(-c3ccccc3)cc2)n1`: the melting point is 183 to 184 °C.

`Cc1ccc2c(c1)CC(=S)N2C` returned a melting point of 143 to 145 °C.

The compound `CCOC(=O)C(C1c2ccccc2Oc2ccccc21)[N+](=O)[O-]` (stereo unspecified) showed a melting point of 89 to 91 °C.

`CC(C)Nc1cc(Cl)nnc1NN` had a melting point of 132 to 135 °C.

For the compound `CCOC(=O)Cc1cc(O)ccc1F`, the melting point fell in the range of 85 to 87 °C.

As for `Cc1ccccc1C(=O)Nc1ccc(C(=O)N2CCCC(CO)c3ccccc32)cc1` (stereo unspecified), the melting point was 202 to 206 °C.

In turn, `CN1CCN([C@H]2CC[C@@H](N)CC2)C1=O` showed a melting point of 81 to 87 °C.

`CCCCc1nn(-c2cc(NC(=S)CCC)ccc2Cl)c(=O)n1Cc1ccc(-c2ccccc2S(=O)(=O)NC(=O)OC(C)(C)C)cc1F` yielded a melting point of 115 to 117 °C.

On to `O=C(NCCO)c1cccc(-c2nc(=O)c3ccccc3s2)n1`, for which the melting point lay within 214 to 215 °C.

`COc1ccc(CCc2nnc(-c3ccc4[nH]ncc4c3)o2)cc1C(F)(F)F` displayed a melting point of 192 to 193 °C.

As for `N#CSCC1CC(=O)N(c2ccc(F)cc2)C1=O` (stereo unspecified), the melting point was 88 °C.

`Cc1nn(C)c(S(N)(=O)=O)c1C(=O)OC(C)C` registered a melting point of 120 to 122 °C.

As for `N#Cc1c(N2CCc3ccccc3CC2)nc2n(c1=O)CCCC2`, the melting point lay within 136 to 140 °C.

As for `Cc1cn2nc(SCc3ccccc3)nc2nc1C`, the melting point is 147 to 149 °C.

The compound `CN1CC[C@@H]2CC(=O)c3cc(F)ccc3[C@H]2C1` (relative stereo) showed a melting point of more than 250 °C.
